Measured values from patent US20220289753A1, “SHP2 INHIBITORS” (IRBM S.P.A., priority 2019, published 2022).

Biological target: T1, SHP-2 enzyme (Met1-Leu525) (Homo sapiens, UniProt Q06124)
T1 construct: synthetized by Origene, Met1-Leu525, cat #TP750155; purchased Origene TP750155
T1 sequence (Q06124 1-525): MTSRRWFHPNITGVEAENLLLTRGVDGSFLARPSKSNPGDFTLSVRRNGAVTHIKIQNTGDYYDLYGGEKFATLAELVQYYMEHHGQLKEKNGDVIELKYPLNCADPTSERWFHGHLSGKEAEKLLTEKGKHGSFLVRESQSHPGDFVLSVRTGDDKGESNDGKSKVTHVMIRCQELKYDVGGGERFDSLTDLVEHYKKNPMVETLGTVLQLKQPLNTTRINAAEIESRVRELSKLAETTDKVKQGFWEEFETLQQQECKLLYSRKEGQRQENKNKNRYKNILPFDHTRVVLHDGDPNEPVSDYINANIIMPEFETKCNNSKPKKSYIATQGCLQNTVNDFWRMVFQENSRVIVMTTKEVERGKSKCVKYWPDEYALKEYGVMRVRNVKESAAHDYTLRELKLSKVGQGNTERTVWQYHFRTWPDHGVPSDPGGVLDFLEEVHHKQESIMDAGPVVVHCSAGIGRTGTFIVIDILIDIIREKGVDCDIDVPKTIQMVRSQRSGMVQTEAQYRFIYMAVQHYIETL
Test: SHP2 inhibition enzymatic assay (DiFMUP substrate, IRS1 peptide activation)
Assay type: biochemical
Conditions: SHP2 wt; activated by 500 nM IRS1 peptide; 75 μM DiFMUP substrate
Method: SHP2 Inhibition Enzymatic Assay
Assay volume of 20 μL/well was assembled in 384 well black polystyrene low-binding microplates (Greiner), using the following buffer: 60 mM HEPES pH 7.2, 75 mM NaCl, 75 mM KCl, 1 mM EDTA pH 8, 0.05% tween-20, 5 mM DTT. The SHP-2 enzyme (synthetized by Origene, Met1-Leu525, cat #TP750155) was used at a final concentration of 0.5 nM.
Briefly, DMSO serially diluted testing compounds were transferred to the bottom of the assay plate. SHP2 was then added together with the IRS1 peptide. 30 minutes post incubation, the DiFMUP substrate was added to the reaction and incubated 30 min at room temperature. […] The fluorescence was detected by a microplate reader (Envision, PerkinElmer) according to the DiFMUP excitation and emission wavelength. The lower the fluorescence the higher the SHP2 inhibition.
The percentage inhibition is fitted against the compound dilutions with a four-parameter logistic regression. The inflection point (i.e. the concentration at which half-maximal inhibition is achieved) is the IC50.

IC50	SMILES
0.5 to 3 µM	CC1(N)CCN(c2nc3nc(Sc4cccc(F)c4F)cnc3[nH]2)CC1 [Example 21, 1-(5-((2,3-difluorophenyl)thio)-1H-imidazo[4,5-b]pyrazin-2-yl)-4-methylpiperidin-4-amine]
< 0.5 µM	CC1(N)CCN(c2nc3nc(Sc4ccccc4C#N)cnc3[nH]2)CC1 [Example 23, 2-((2-(4-amino-4-methylpiperidin-1-yl)-1H-imidazo[4,5-b]pyrazin-5-yl)thio)benzonitrile]
< 0.5 µM	COc1ccccc1Sc1cnc2[nH]c(N3CCC(C)(N)CC3)nc2n1 [Example 24, 1-(5-((2-methoxyphenyl)thio)-1H-imidazo[4,5-b]pyrazin-2-yl)-4-methylpiperidin-4-amine]
0.5 to 3 µM	COc1cccc(Sc2cnc3[nH]c(N4CCC(C)(N)CC4)nc3n2)c1 [Example 25, 1-(5-((3-methoxyphenyl)thio)-1H-imidazo[4,5-b]pyrazin-2-yl)-4-methylpiperidin-4-amine]
0.5 to 3 µM	CC1(N)CCN(c2nc3nc(Sc4cccc(C#N)c4)cnc3[nH]2)CC1 [Example 26, 3-((2-(4-amino-4-methylpiperidin-1-yl)-1H-imidazo[4,5-b]pyrazin-5-yl)thio)benzonitrile]
> 3 µM	CC1(N)CCN(c2nc3nc(Sc4ccc(OC(F)(F)F)cc4)cnc3[nH]2)CC1 [Example 27, 4-methyl-1-(5-((4-(trifluoromethoxy)phenyl)thio)-1H-imidazo[4,5-b]pyrazin-2-yl)piperidin-4-amine]
< 0.5 µM	CC1(N)CCN(c2nc3nc(Sc4ccncc4Cl)cnc3[nH]2)CC1 [Example 28, 1-(5-((3-chloropyridin-4-yl)thio)-1H-imidazo[4,5-b]pyrazin-2-yl)-4-methylpiperidin-4-amine]
> 3 µM	CC1(N)CCN(c2nc3ncc(Sc4ccc(C5(C#N)CCC5)cc4)nc3[nH]2)CC1 [Example 29, 1-(4-((2-(4-amino-4-methylpiperidin-1-yl)-1H-imidazo[4,5-b]pyrazin-6-yl)thio)phenyl)cyclobutane-1-carbonitrile]
> 3 µM	CC1(N)CCN(c2nc3ncc(Sc4csc5ccccc45)nc3[nH]2)CC1 [Example 30, 1-(6-(benzo[b]thiophen-3-ylthio)-1H-imidazo[4,5-b]pyrazin-2-yl)-4-methylpiperidin-4-amine]
0.5 to 3 µM	FC(F)(F)c1ncccc1Sc1cnc2[nH]c(N3CCCCC3)nc2n1 [Example 31, 2-(piperidin-1-yl)-5-((2-(trifluoromethyl)pyridin-3-yl)thio)-1H-imidazo[4,5-b]pyrazine]
> 3 µM	FC(F)(F)c1ncccc1Sc1cnc2[nH]c(NCc3ccn[nH]3)nc2n1 [Example 32, N-((1H-pyrazol-5-yl)methyl)-5-((2-(trifluoromethyl)pyridin-3-yl)thio)-1H-imidazo[4,5-b]pyrazin-2-amine]
< 0.5 µM	NC1CCCN(c2nc3nc(Sc4cccnc4C(F)(F)F)cnc3[nH]2)C1 (stereo not shown) [Example 33, 1-(5-((2-(trifluoromethyl)pyridin-3-yl)thio)-1H-imidazo[4,5-b]pyrazin-2-yl)piperidin-3-amine]
0.5 to 3 µM	CC1(N)CCN(c2nc3nc(Sc4cc(C(F)(F)F)ccc4Cl)cnc3[nH]2)CC1 [Example 36, 1-(5-((2-chloro-5-(trifluoromethyl)phenyl)thio)-1H-imidazo[4,5-b]pyrazin-2-yl)-4-methylpiperidin-4-amine]
< 0.5 µM	Cc1cc(Cl)ccc1Sc1cnc2[nH]c(N3CCC(C)(N)CC3)nc2n1 [Example 38, 1-(5-((4-chloro-2-methylphenyl)thio)-1H-imidazo[4,5-b]pyrazin-2-yl)-4-methylpiperidin-4-amine]
< 0.5 µM	Cc1cccc(Sc2cnc3[nH]c(N4CCC(C)(N)CC4)nc3n2)c1C [Example 39, 1-(5-((2,3-dimethylphenyl)thio)-1H-imidazo [4,5-b]pyrazin-2-yl)-4-methylpiperidin-4-amine]
> 3 µM	CS(=O)(=O)NC1CCN(c2nc3nc(Sc4cccnc4C(F)(F)F)cnc3[nH]2)CC1 [Example 40, N-(1-(5-((2-(trifluoromethyl)pyridin-3-yl)thio)-1H-imidazo[4,5-b]pyrazin-2-yl)piperidin-4-yl)methanesulfonamide]
> 3 µM	OC1CCN(c2nc3nc(Sc4cccnc4C(F)(F)F)cnc3[nH]2)CC1 [Example 41, 1-(5-((2-(trifluoromethyl)pyridin-3-yl)thio)-1H-imidazo[4,5-b]pyrazin-2-yl)piperidin-4-ol]
0.5 to 3 µM	FC(F)(F)c1ncccc1Sc1cnc2[nH]c(N3CCC(Cn4ccnc4)CC3)nc2n1 [Example 42, 2-(4-((1H-imidazol-1-yl)methyl)piperidin-1-yl)-5-((2-(trifluoromethyl)pyridin-3-yl)thio)-1H-imidazo[4,5-b]pyrazine]
0.5 to 3 µM	FC(F)(F)c1ncccc1Sc1cnc2[nH]c(NCCc3cn4ccccc4n3)nc2n1 [Example 43, N-(2-(imidazo[1,2-a]pyridin-2-yl)ethyl)-5-((2-(trifluoromethyl)pyridin-3-yl)thio)-1H-imidazo[4,5-b]pyrazin-2-amine]
0.5 to 3 µM	FC(F)(F)c1ncccc1Sc1cnc2[nH]c(N3CCC34CCNCC4)nc2n1 [Example 44, 2-(1,7-diazaspiro[3.5]nonan-1-yl)-5-((2-(trifluoromethyl)pyridin-3-yl)thio)-1H-imidazo[4,5-b]pyrazine]
0.5 to 3 µM	COc1ccc(Sc2cnc3[nH]c(N4CCC(C)(N)CC4)nc3n2)cc1 [Example 45, 1-(5-((4-methoxyphenyl)thio)-1H-imidazo[4,5-b]pyrazin-2-yl)-4-methylpiperidin-4-amine]
0.5 to 3 µM	CC1(N)CCN(c2nc3nc(Sc4cccc(C5CC5)c4)cnc3[nH]2)CC1 [Example 46, 1-(5-((3-cyclopropylphenyl)thio)-1H-imidazo[4,5-b]pyrazin-2-yl)-4-methylpiperidin-4-amine]
0.5 to 3 µM	CC1(N)CCN(c2nc3nc(Sc4cccc(C(F)(F)F)n4)cnc3[nH]2)CC1 [Example 47, 4-methyl-1-(5-((6-(trifluoromethyl)pyridin-2-yl)thio)-1H-imidazo[4,5-b]pyrazin-2-yl)piperidin-4-amine]
0.5 to 3 µM	Cc1nc(-c2cccc(Sc3cnc4[nH]c(N5CCC(C)(N)CC5)nc4n3)c2)cs1 [Example 48, 4-methyl-1-(5-((3-(2-methylthiazol-4-yl)phenyl)thio)-1H-imidazo[4,5-b]pyrazin-2-yl)piperidin-4-amine]
< 0.5 µM	CC1(N)CCN(c2nc3ncc(Sc4cccc5ncccc45)nc3[nH]2)CC1 [Example 49, 4-methyl-1-(6-(quinolin-5-ylthio)-1H-imidazo[4,5-b]pyrazin-2-yl)piperidin-4-amine]
0.5 to 3 µM	FC(F)(F)c1ncccc1Sc1cnc2[nH]c(Nc3ccc4n[nH]cc4c3)nc2n1 [Example 50, N-(2H-indazol-5-yl)-5-((2-(trifluoromethyl)pyridin-3-yl)thio)-1H-imidazo[4,5-b]pyrazin-2-amine]
> 3 µM	NC(=O)C1CCN(c2nc3nc(Sc4cccnc4C(F)(F)F)cnc3[nH]2)CC1 [Example 51, 1-(5-((2-(trifluoromethyl)pyridin-3-yl)thio)-1H-imidazo[4,5-b]pyrazin-2-yl)piperidine-4-carboxamide]
> 3 µM	Cn1cnc(C2CCN(c3nc4nc(Sc5cccnc5C(F)(F)F)cnc4[nH]3)CC2)c1 [Example 53, 2-(4-(1-methyl-1H-imidazol-4-yl)piperidin-1-yl)-5-((2-(trifluoromethyl)pyridin-3-yl)thio)-1H-imidazo[4,5-b]pyrazine]
